Laboratory results taken from patent US20120071496A1, “Aminopyrimidinamides As Pest Control Agents” (Bayer CropScience AG, priority 2009, published 2012).

Test: logP (HCOOH)
Assay type: physicochemical
Conditions: HCOOH (formic acid); Table 2

Row | chromatographic logP | Compound
1 | 1.6 | CCc1ncccc1C(=O)Nc1c(NC2CC2)ncnc1-c1ccc(Cl)cc1Cl [1-126, N-[4-Cyclopropylamino-6-(2,4-dichlorophenyl)pyrimidin-5-yl]-2-ethylnicotinamide]

Same assay, conditions: Table 2

Row | Compound | logP (HCOOH)
2 | Cc1ncccc1C(=O)Nc1c(NC2CC2)ncnc1-c1ccc(F)cc1 [1-1] | 0.71
3 | CCc1ncccc1C(=O)Nc1c(NC2CC2)ncnc1-c1ccc(F)c(F)c1 [1-4] | 1.34
4 | Cc1ccccc1C(=O)Nc1c(NC2CC2)ncnc1-c1ccc(OC(F)(F)F)cc1 [1-72] | 2.35
5 | Cc1ncccc1C(=O)Nc1c(NC(C)C)ncnc1-c1ccc(OC(F)(F)F)cc1 [1-74] | 1.55
6 | O=C(Nc1c(NC2CC2)ncnc1-c1ccc(OC(F)(F)F)cc1)c1cccnc1Cl [1-75] | 1.99
7 | CC(C)Nc1ncnc(-c2ccc(OC(F)(F)F)cc2)c1NC(=O)c1cccnc1Cl [1-76] | 2.05
8 | O=C(Nc1c(NC2CC2)ncnc1-c1ccc(C(F)(F)F)cc1)c1ccccc1Cl [1-80] | 2.33
9 | Cc1ccccc1C(=O)Nc1c(NC2CC2)ncnc1-c1ccc(C(F)(F)F)cc1 [1-81] | 2.33
10 | O=C(Nc1c(NC2CC2)ncnc1-c1ccc(C(F)(F)F)cc1)c1cccnc1Cl [1-82] | 1.94
11 | Cc1ncccc1C(=O)Nc1c(NC2CC2)ncnc1-c1ccc(C(F)(F)F)cc1 [1-83] | 1.43
12 | O=C(Nc1c(NC2CC2)ncnc1-c1ccc(C(F)(F)F)cc1)c1cccnc1C(F)(F)F [1-84] | 2.19
13 | CC(C)c1ncccc1C(=O)Nc1c(NC2CC2)ncnc1-c1ccc(C(F)(F)F)cc1 [1-85] | 2.02
14 | CCc1ccccc1C(=O)Nc1c(NC2CC2)ncnc1-c1ccc(C(F)(F)F)cc1 [1-86] | 2.68
15 | Cc1nc(NC2CC2)c(NC(=O)c2cccnc2C)c(-c2ccc(C(F)(F)F)cc2)n1 [1-87] | 1.27
16 | Cc1nc(NC2CC2)c(NC(=O)c2ccccc2Cl)c(-c2ccc(C(F)(F)F)cc2)n1 [1-88] | 1.93
17 | CC(Nc1ncnc(-c2ccc(OC(F)(F)F)cc2)c1NC(=O)c1cccnc1Cl)C1CC1 (stereo not drawn) [1-99] | 2.44

Row | Compound | logP (HCOOH)
18 | O=C(Nc1c(NC(C2CC2)C2CC2)ncnc1-c1ccc(OC(F)(F)F)cc1)c1cccnc1Cl [1-111] | 2.65
19 | O=C(Nc1c(NC2CC2)ncnc1-c1ccc(OC(F)(F)F)cc1)c1ccccc1 [1-112] | 2.12
20 | O=C(Nc1c(NC2CC2)ncnc1-c1ccc(OC(F)(F)F)cc1)c1ccccc1Cl [1-113] | 2.41
21 | CCc1ncccc1C(=O)Nc1c(NC2CC2)ncnc1-c1ccc(SC(F)(F)F)cc1 [1-114] | 1.4
22 | Cc1ncccc1C(=O)Nc1c(NC2CC2)ncnc1-c1ccc(SC(F)(F)F)cc1 [1-116] | 1.81
23 | Cc1ncccc1C(=O)Nc1c(NC2CC2)ncnc1-c1ccc(OS(=O)(=O)C(C)C)cc1 [1-121] | 1.15
24 | Cc1ncccc1C(=O)Nc1c(NC2CC2)ncnc1-c1cc(F)c(C(F)(F)F)c(F)c1 [1-122] | 1.95
25 | CCc1ncccc1C(=O)Nc1c(NC2CC2)ncnc1-c1ccc(F)cc1 [1-124] | 1.03
26 | CCc1ncccc1C(=O)Nc1c(NC2CC2)ncnc1-c1ccccc1 [1-127] | 1.01
27 | O=C(Nc1c(NC2CC2)ncnc1-c1ccccc1)c1cccnc1 [1-128] | 0.63
28 | O=C(Nc1c(NC2CC2)ncnc1-c1ccc(F)cc1)c1cccnc1Cl [1-129] | 1.27
29 | O=C(Nc1c(NC2CC2)ncnc1-c1ccc(Cl)cc1)c1cccnc1Cl [1-130] | 1.55
30 | CCc1ncccc1C(=O)Nc1c(NC2CC2)ncnc1-c1ccc(C#N)cc1 [1-133] | 1.10
31 | CCc1ncccc1C(=O)Nc1c(NC(C)(C)C)ncnc1-c1ccc(F)cc1 [1-134] | 1.53
32 | CCc1ncccc1C(=O)Nc1c(NC(C)(C)C)ncnc1-c1ccc(Cl)cc1 [1-135] | 1.86
33 | CCc1ncccc1C(=O)Nc1c(NC(C)(C)C)ncnc1-c1ccc(C#N)cc1 [1-136] | 1.81
